In patent US8697390B2, “Method and kit for examination of cells using N-(9-acridinyl) maleimide (NAM) or using 7-diethylamino-3-((4′-iodacetyl)amino)phenyl)-4-methylkcoumarin (CPI)” (ChemoMetec A/S, priority 2008, dated 2014):

Key:
HEK293 cells = test: NAM/PI staining to determine viability of outgrown HEK293 cells (fluorescence microscopy); assay type: cell-based, human
Procedure: HEK293 cells were grown at 37° C. in a humidified air atmosphere with 5% CO2 in DMEM (Invitrogen, #31966) supplemented with 10% heat-inactivated fetal bovine serum (Invitrogen, #10108-165). Cells were harvested with 0.5 mL of trypsin (Invitrogen, #25300) and neutralized with 5 mL medium (DMEM+10% FCS) two days after they had reached full confluency. These outgrown HEK293 cells (cell density 1.6×10^6, 78% viable determined using the NC-100 NucleoCounter system following the manufacturer's (ChemoMetec) protocol) were stained with 10 μg/mL NAM (Sigma, #01665). Another cell sample were treated with 0.25% Triton X-100 (Sigma, #T9284) and hereafter added 10 μg/mL NAM. After staining, each cell sample was loaded into a NucleoCassette, containing the DNA stain propidium iodide (PI). The cells were investigated using an Olympus IX50 fluorescent microscope, and images were captured using a Lumenera CCD camera and in-house developed software. PI and NAM fluorescence were detected using, respectively, U-MWG2 (green long pass: 510-550 nm) and U-MNUA2 (UV band pass, 330-385 nm) filter cubes (Olympus).

Drosophila S2 cells = test: NAM/PI staining to determine viability of Drosophila S2 cells (fluorescence microscopy); assay type: cell-based, Drosophila melanogaster; settings: 99% viable, diluted 10 times in PBS, 10 μg/mL NAM
Procedure: (Drosophila melanogaster Schneider line-2 (S2) cells were originally derived from late embryonic stage Drosophila embryos.) Drosophila S2 cells were grown at 28° C. without shaking in Schneider's Drosophila medium (Invitrogen, #21720) supplemented with 10% heat-inactivated fetal bovine serum (Invitrogen, #10108-165). S2 cells (cell density 1.7×10^7, 99% viable determined using the YC-100 NucleoCounter system with diploid settings following the manufacturer's (ChemoMetec) protocol) were diluted 10 times in PBS and stained with 10 μg/mL NAM (Sigma, #01665). Cells were loaded into a NucleoCassette, containing the DNA stain propidium iodide (PI). The cells were investigated using an Olympus IX50 fluorescent microscope, and images were captured using a Lumenera CCD camera and in-house developed software. PI and NAM fluorescence were detected using, respectively, U-MWG2 (green long pass: 510-550 nm) and U-MNUA2 (UV band pass, 330-385 nm) filter cubes (Olympus).

[1] = Excitation spectra of NAM with -SH reagents (spectrofluorophotometer); assay type: physicochemical
Procedure: The excitation spectra of NAM, glutathione GSH, GSSG and DTT and combinations thereof were obtained using a spectrofluorophotometer (RF-5301 Fluorescence Spectrophotometer, Shimadzu). 10 μL NAM dissolved in DMSO (100 μg/mL) were added to 3 mL distilled water (resulting concentration of NAM; 0.33 μg/mL) in a quartz cuvette and the excitation spectrum was recorded. Likewise were the spectra of NAM (0.33 μg/mL) together with GSH (167 μg/mL), NAM (0.33 μg/mL) together with GSSG (167 μg/mL), NAM together with DTT (167 μg/mL), GSH (167 μg/mL) alone, GSSG (167 μg/mL) alone and DTT (167 μg/mL) alone recorded.

S. pombe strain Eg328 = test: NAM and propidium iodide staining of fission yeast; assay type: cell-based, Schizosaccharomyces pombe
Procedure: S. pombe strain Eg328, h^90 smt-0 ura4-D18, (ATCC 90720; Styrkarsdottir U et al. Curr. Genet. 23: 184-186, 1993) was grown in a rotary shaker at 29° C. to a density of 1×10^7 cells/ml in EMM minimal medium (Moreno et al., Methods Enzym. 194: 795-823, 1991) supplemented with 10 mM of L-uridine (Sigma, U3750). Cells were collected by centrifuging, washed with sterile water and stained with 10 μg/ml NAM (N-(9-acridinyl)-maleimide, Sigma, #01665) and 10 μg/ml propidium iodide (Applichem, #A2261.9010) prior to mounting on a microscope slide. Olympus IX50 was used for microscopy, and images were captured using a Lumenera CCD camera and in-house developed software. Propidium iodide and NAM fluorescence were detected using, respectively, U-MWG2 and U-MNUA2 filter cubes (Olympus).

[2] = Akasaka et al. 1990; cited from earlier work

Q: Which “staining of Triton X-100 treated cells” value (HEK293 cells; HEK293 cells treated with 0.25% Triton X-100, then 10 μg/mL NAM, PI from NucleoCassette) does the source give for `O=C1C=CC(=O)N1c1c2ccccc2nc2ccccc12` [NAM, N-(9-acridinyl)maleimide] here?
A: NAM negative

Q: What about the “staining of cells by NAM versus PI” value (HEK293 cells; outgrown HEK293 cells, 78% viable, 10 μg/mL NAM) of the same compound?
A: NAM and PI were found to complementary stain the outgrown HEK293 cells

Q: What about the “staining of cells by NAM versus PI” value (Drosophila S2 cells) of the same compound?
A: NAM and PI were found to complementary stain S2 cells

Q: And the “fluorescence of NAM alone” value ([1]; NAM 0.33 μg/mL in distilled water, no thiol)?
A: only exhibited very weak fluorescence

Q: What about the “fluorescence on mixing NAM with GSH” value ([1]; NAM 0.33 μg/mL, GSH 167 μg/mL) of the same compound?
A: strong synergistic effect with respect to fluorescence

Q: What about the “fluorescence on mixing NAM with DTT” value ([1]; NAM with DTT 167 μg/mL) of the same compound?
A: strong synergistic effect with respect to fluorescence

Q: What about the “intracellular localization of NAM in yeast cells” value (S. pombe strain Eg328; 10 μg/ml NAM) of the same compound?
A: localizes to both the nucleus and cytosol

Q: What about the “staining of living and dead yeast cells by NAM” value (S. pombe strain Eg328; 10 μg/ml NAM and 10 μg/ml propidium iodide) of the same compound?
A: NAM stains both living and dead yeast cells

Q: What about the “fluorescence of NAM upon reaction with sulfite” value [2] of the same compound?
A: fluoresces strongly
